From patent publication US6537267B1, “Method for chronic catheterization of the common bile duct of a laboratory rat” (priority 2001, dated 2003)

Test: Determination of maximal biliary ICG excretion rate
Type: in vivo, rat
Protocol: Bile was obtained through the bile catheter by inserting a 23-gauge infusion set needle (Abbott Laboratories) from which all but 0.5 in of tubing had been removed, and approximately 24 inches of saline-filled PE 60 tubing attached. A sterile 1.5 mL sampling tube was attached to the tubing end, and bile was withdrawn by suspending the sampling tube below the cage using negative pressure. Bile was collected into tared sampling tubes at 5 minute intervals during a 90 minute period during which ICG was infused into the IVC at 50 μg/minute. ICG, 1 mL/h was delivered by a Razel Scientific (Stamford, Conn.) infusion pump with a 3 mL Becton Dickinson (Franklin Lakes, N.J.) syringe.
Bile flow rate was calculated using the net sampling tube weight assuming a bile density of 1 g/mL. A total of 10 μL of bile from each sample tube was aliquoted to determine ICG concentration. The remainder of the bile was infused into the duodenal catheter to maintain enterohepatic circulation of bile acids. Biliary ICG concentrations were measured spectrophotometrically at wavelength 805 nm. Biliary ICG excretion was calculated for each 5 minute interval by multiplying the bile flow rate by the biliary ICG concentration.
To establish a sensitive and reliable measure of hepatic dysfunction, the maximal biliary ICG excretion rate under physiologic conditions was determined. This measure, which detected even minor changes in biliary ICG excretion, was critical to subsequent primary studies. The animals were anesthetized with ketamine (60 mg/kg) and xylazine (5 mg/kg) intramuscularly. […] The blood concentrations and biliary excretion rates of ICG was measured during a constant infusion of ICG at 10, 20, 50, 100, and 200 μg/minute for 90 minutes in 8 rats that served as their own controls for the different doses on separate days. […] Biliary ICG excretion was measured as described above. Aortic blood samples (0.25 mL) were collected every 10 minutes and analyzed for ICG concentration. Following each blood draw, the animals were transfused with an equal volume of blood obtained immediately prior to transfusion from other untreated chronically catheterized rats that were previously designated as donors. […] After an initial 30 minute equilibration period mean biliary ICG excretion remained at a steady state concentration between 30 and 90 minutes of ICG infusion. […] The bile flow rate was unaffected by any of the tested ICG concentrations.

[1] = ICG infusion 100 and 200 μg/minute

CC1(C)C(/C=C/C=C/C=C/C=C2\N(CCCCS(=O)(=O)O)c3ccc4ccccc4c3C2(C)C)=[N+](CCCCS(=O)(=O)[O-])c2ccc3ccccc3c21 [ICG, Indocyanine green]
biliary ICG excretion rate between 30 and 90 minutes vs 50 μg/minute [1]: did not yield a greater biliary ICG excretion rate | mean blood ICG concentrations between 30 and 90 minutes vs 50 μg/minute [1]: significantly increase mean blood ICG concentrations | effect of ICG on bile flow rate (any of the tested ICG concentrations (10-200 μg/minute)): unaffected | equilibration period before steady state biliary ICG excretion (constant ICG infusion): 30 min
